“Also recorded” adds a separate entry of the source.
How the values were obtained:
DSS colitis model mice [1] = test: DSS (3% aqueous solution) colitis model mice, drug efficacy and side effects (2); type: in vivo, C57BL/6 mice; details: 3% DSS
Description: (§1) 1. Six-week old (body weight: 20 g) male C57BL/6 mice were purchased and acclimated for 5 to 7 days.
(§2) 2. An average weight was mated between groups having 5 to 6 animals.
3. A DSS untreated group (normal) had free access to mineral water filtered through a […] membrane filter. […]
(§3) 4. After initiation of free access to DSS-containing water, a body weight was measured every day and then an evaluated drug was orally administered.
(§4) 6. An orally administered solution was prepared by dissolving the drug in ethanol to a final concentration of 1% and suspending the solution in a 0.5% solution of carboxymethylcellulose (CMC).
(§5) 7. The drug was administered for 11 days, and the next day, a mouse was euthanized followed by blood collection and dissection. A large intestine and a spleen were isolated. A large intestine length was measured and photographs of the large intestine and the spleen were taken. A section of the large intestine was taken and photographed.

Raw264.7 cells = test: Inhibitory effect on LPS-stimulated NO production (Griess assay); details: LPS 100 ng/mL; for LPS-stimulated NO production: 48 hours; for NO-production inhibitory effect in combination with RU486 (GR antagonist): combined with 1 μM of RU486
DSS colitis model mice [2] = test: DSS (2% aqueous solution) colitis model mice, drug efficacy and side effects (1); type: in vivo, C57BL/6 mice
Description: as §1, §2
(§6) 3. A DSS untreated group (normal) had free access to mineral water filtered through a […] membrane filter. A DSS […] group (vehicle and drug group) had free access to mineral water containing 2% dextran sulfate sodium (DSS) filtered through a […] membrane filter for 6 days and then mineral water filtered through a 0.22 μM membrane filter.
as §3, §4, §5
8. The collected blood was heparinized to give plasma, which was used for determining a blood triglyceride (TG).

DSS colitis model mice [3] = test: DSS (2% aqueous solution) colitis model mice, drug efficacy and side effects (3); type: in vivo, C57BL/6 mice; details: 2% DSS
Description: as §1, §2, §6, §3, §4, §5

RXR = details: cited from earlier work
[4] = cited from earlier work
[5] = Measurement of a drug concentration in a large intestine; type: in vivo, ICR mice; details: the next day after 3 day administration
Description: 1. The next day of the last medication (day 3 of medication), a mouse used in Example 2 was euthanized with ether and then a large intestine was excised.
2. Faces were removed from the removed large intestine and the inside of the large intestine was washed with PBS. Excess water was removed with Kimwipes.
3. About 200 mg of the above large intestine was precisely placed in a 2 mL Eppendorf tube.
4. To the Eppendorf tube was added 800 μL of HPLC-grade methanol, and the mixture was pulverized by a homogenizer. Methanol was further added such that the total volume of methanol added became five times as much as the volume of the large intestine.
5. The mixture was ultrasonic-extracted for 20 min.
6. After the extraction, the extract was centrifuged at 4° C. and 1,500×g for 20 min.
7. After the centrifugation, about 1 mL of the supernatant was filtered through a syringe filter and poured into a 2 mL Eppendorf tube.
9. Since extraction with […] of methanol was conducted assuming that 200 mg of the above […] corresponded to 200 μL, a concentration in a large intestine was estimated by multiplying the concentration in methanol determined by LC/MS by 5.

[6] = Measurement of a blood concentration of a drug after oral administration; type: in vivo, ICR mice; details: single oral dose of 3 mg/kg; at any time (0, 1, 3, 6 h); plasma
Description: 1. Six-week old male ICR mice (body weight: 15 to 25 g) were fasted from the evening of the day before the experiment, and a compound solution prepared in [2] below at a volume of 10 mL/kg was orally administered via a stomach tube. At 0, 1, 3, and 6 hours after the administration, the animals were anesthetized with ether, and incised the abdomen to collect blood from a large vein. The blood was transferred into a heparinized tube and centrifuged at 5000 rpm for 5 minutes, to collect 100 μL of plasma. Each treated group had five mice.
2. A dose of the compound was 30, 3, 0.3 mg/kg per an animal. A dosage form of the compound was prepared by dissolving it in ethanol to a final concentration of 1% and suspending the solution in a 0.5% solution of carboxymethylcellulose (CMC).
3. To 100 μL of the plasma were added 100 μL of an ammonium acetate buffer (prepared by adding acetic acid to 5 mM of ammonium acetate and adjusting a pH to 5), and then 1 mL of ethyl acetate. The mixture was vortexed for 30 min, allowed to stand at room temperature for 10 min and centrifuged for 30 sec to remove 800 μL of a supernatant, which was then concentrated by a centrifugal evaporator. The residue was stored at −20° C.
4. […] Then, for 20 μL of the sample, a compound concentration was determined by HPLC or LCMS. […]

[7] = Measurement of a drug concentration in feces; type: in vivo, ICR mice; details: for concentration in feces: oral gavage
Description: 1. For each treated group, four six-week old male ICR mice (body weight: 35 to 40 g) were used.
2. An orally-administered solution was prepared by dissolving it in ethanol to a final concentration of 1% and suspending the solution in a 0.5% solution of carboxymethylcellulose (CMC).
3. Each mouse was housed in a cage and had free access to feed and water.
4. After a body weight was measured at 10 a.m., the animal was gavaged with an evaluated drug via a feeding tube.
5. From the next day, feces in each cage were collected for 3 days.
6. Hundred milligrams of the feces were dried under vacuum at 40° C. and pulverized in a mortar. Then, 1.5 mL of HPLC-grade methanol was added, followed by ultrasonic extraction for 20 min.
7. After the extraction, the mixture was centrifuged at 4° C. and 1,500×g for 20 min.
8. After the centrifugation, 1 mL of the supernatant was filtered through a syringe filter and poured into a 2 mL Eppendorf tube.
9. […] The concentration was converted to a concentration per 100 mg of feces.
10. Since extraction with 1.5 mL of methanol was conducted assuming that 100 mg of the above feces corresponded to 100 μL, a concentration in feces was estimated by multiplying the concentration in methanol determined by LC/MS by […].

[8] = 2% DSS, oral 100 mg/kg/day, 11 days
[9] = 2% DSS, repeated oral dosing at 10 mg/kg/day, in comparison with bexarotene

C[C@]12C=CC(=O)C=C1CC[C@@H]1[C@@H]2[C@@H](O)C[C@@]2(C)[C@H]1CC[C@]2(O)C(=O)CO [Prednisolone, prednisolone, reference compound]
anti-inflammatory effect (DSS colitis model mice [1]; oral administration at 10 mg/kg/day): did not exhibit anti-inflammatory effect | LPS-stimulated NO production (Raw264.7 cells): inhibited | NO-production inhibitory effect in combination with RU486 (GR antagonist) (Raw264.7 cells): inhibited by combination use of RU486

Nc1ccc(O)c(C(=O)O)c1 [5-Aminosalicylic acid, 5-aminosalicylic acid, reference compound]
improvement in body weight reduction (DSS colitis model mice [2]; [8]): did not contribute to improvement in body weight reduction | recovery of a large intestine length (DSS colitis model mice [2]; [8]): did not contribute

O=C(O)c1cc(/N=N/c2ccc(S(=O)(=O)Nc3ccccn3)cc2)ccc1O [SASP, salazosulfapyridine, reference compound]
weight change, improvement effect compared with a vehicle (DSS colitis model mice [3]; oral 200 mg×2/kg/day): did not exhibit improvement effect

CCN(c1ccc(C(C)C)c(OCCOC)c1)c1ccc(C(=O)O)cn1 [NEt-3ME]
effect relative to NEt-3IB (DSS colitis model mice [3]; at a dose three times as much as NEt-3IB (30 vs 10 mg/kg/day)): comparable to NEt-3IB | weight change (DSS colitis model mice [3]; oral 30 mg/kg/day): inhibited body weight reduction | RXR receptor activation potency relative to NEt-3IB (RXR): less receptor activation potency than NEt-3IB

CCN(c1ccc(C(C)C)c(OCC(C)C)c1)c1ccc(C(=O)O)cn1 [NEt-3IB]
absorption in oral administration ([4]; reported): poorly absorbed | enlarged liver or increase in triglyceride ([4]; reportedly, in contrast to a conventional RXR full agonist): does not cause an enlarged liver or increase in triglyceride | concentration in a large intestine [5]: 0.0027 ± 0.0003 µM | weight change (DSS colitis model mice [3]; oral 10 mg/kg/day): inhibited body weight reduction | blood concentration [6]: < 0.1 µM | inhibition of body weight reduction (DSS colitis model mice [1]; oral 10 mg/kg/day): prominent inhibition of body weight reduction | recovery of a large intestine length (DSS colitis model mice [1]; oral 10 mg/kg/day): recovery of a large intestine length | increase in the concentration in feces by repeated administration ([7]; 3 day oral administration): increase in the concentration by repeated administration was not found | concentration in feces ([7]; Day 1): 40 ± 6 µM | concentration in feces ([7]; Day 2): 33 ± 4 µM | concentration in feces ([7]; Day 3): 22 ± 1 µM | LPS-stimulated NO production (Raw264.7 cells): inhibited | NO-production inhibitory effect in combination with RU486 (GR antagonist) (Raw264.7 cells): not inhibited | improvement in body weight reduction (DSS colitis model mice [2]; [9]): prominent improvement in body weight reduction | recovery of a large intestine length (DSS colitis model mice [2]; [9]): recovery of a large intestine length | blood triglyceride (TG) (DSS colitis model mice [2]; 2% DSS, repeated oral dosing, compared with bexarotene): inhibited increase in blood TG; also recorded: increase in a blood triglyceride by the agent was reduced | anti-inflammatory effect on DSS enteritis (DSS colitis model mice [2]; repetitive oral administration, 1 mg/kg/day): prominent anti-inflammatory effect

— US11103489B2, “Drug for preventing or treating inflammatory bowel disease” (NATIONAL UNIVERSITY CORPORATION OKAYAMA UNIVERSITY, priority 2015, dated 2021)
